Measurements as given in paper PMC8009478, “Novel Curcumin-Diethyl Fumarate Hybrid as a Dualistic GSK-3β Inhibitor/Nrf2 Inducer for the Treatment of Parkinson’s Disease” (ACS Chemical Neuroscience, 2020).

Experiments:
[1] = tested on: SH-SY5Y cells; test: Neuroprotection against Aβ1–42 oligomers, MTT assay; format: cell-based, human; details: 5 μM for 24 h, then OAβ1–42 10 μM for 4 h
Procedure: Intracellular accumulation of soluble Aβ1–42 oligomers is responsible for neurotoxic effects, such as neuronal death, and represents a key event in AD pathogenesis.[33] […] Briefly, SH-SY5Y cells were incubated with 5 μM concentration of the selected analogues for 24 h, followed by OAβ1–42 oligomers treatment (10 μM) for 4 h (Figure 6A).
Figure 6 Effects of 4 and 5 on neurotoxicity induced by OAβ1–42 oligomers and 6-OHDA in SH-SY5Y cells. (A) Cells were incubated with 4 and 5 (5 μM, for 24 h) and then treated with OAβ1–42 (10 μM, for 4 h). (B) Cells were incubated with compounds 4 and 5 (5 μM, for 24 h), then treated with 6-OHDA (100 μM, for 2 h), and then starved in complete medium for 22 h. The neurotoxicity was evaluated by an MTT assay. Data are expressed as percentages of neurotoxicity versus cells treated with Aβ1–42 oligomers or 6-OHDA and reported as mean ± SEM of at least three independent experiments (* p < 0.05 versus cells treated with 6-OHDA at one-way ANOVA with the Dunnett post hoc test). […]
Then, cells were treated with Aβ1–42 oligomers for 4 h. The neuroprotective activity, in terms of an increase in intracellular MTT granules, was measured by an MTT assay, as previously described (see the Supporting Information for experimental details).[46]

[2] = tested on: NQO1; test: NQO1 gene expression by RT-PCR; format: cell-based, human; details: 5 μM, after 12 and 24 h of treatment
Procedure: Figure 5 Effects of compounds 4 and 5 on the Nrf2/ARE signaling pathway (A and B) and NQO1 gene expression (C) in SH-SY5Y cells. (A) Cells were treated with compounds 4 and 5 (5 μM) for different times (1, 3, and 6 h). Translocation of Nrf2 from the cytosol to the nucleus was evaluated by Western blotting. Data are expressed as a ratio between nuclear Nrf2 and cytoplasmic Nrf2 levels and reported as mean ± SEM of at least three independent experiments. (B) Cells were treated with compounds 4 and 5 (5 μM) and DMF (5 μM) for 6 h. The Nrf2/ARE binding activity was determined by an ELISA assay. Results are expressed as fold increase versus untreated cells and reported as mean ± SEM of at least three independent experiments (** p < 0.01 and * p < 0.05 versus untreated cells at the t-test). (C) Cells were treated with compounds 4 and 5 (5 μM) for different times (6, 12, and 24 h). The NQO1 expression was determined by RT-PCR. Results are expressed as the relative normalized expression and reported as mean ± SEM of at least three independent experiments (*** p < 0.001 versus untreated cells at one-way ANOVA with the Dunnett post hoc test).
To further confirm the increase in Nrf2 transcriptional activity upon treatment with 4 and 5, the mRNA levels of NQO1, a Nrf2 target gene, were evaluated in SH-SY5Y cells (Figure 5C). […]

[3] = tested on: SH-SY5Y cells; test: Neuroprotection against 6-OHDA, MTT assay; format: cell-based, human; details: 5 μM for 24 h, then 6-OHDA 100 μM for 2 h
Procedure: Figure 6 Effects of 4 and 5 on neurotoxicity induced by OAβ1–42 oligomers and 6-OHDA in SH-SY5Y cells. (A) Cells were incubated with 4 and 5 (5 μM, for 24 h) and then treated with OAβ1–42 (10 μM, for 4 h). (B) Cells were incubated with compounds 4 and 5 (5 μM, for 24 h), then treated with 6-OHDA (100 μM, for 2 h), and then starved in complete medium for 22 h. The neurotoxicity was evaluated by an MTT assay. Data are expressed as percentages of neurotoxicity versus cells treated with Aβ1–42 oligomers or 6-OHDA and reported as mean ± SEM of at least three independent experiments (* p < 0.05 versus cells treated with 6-OHDA at one-way ANOVA with the Dunnett post hoc test).
The neurotoxin 6-OHDA provides an in vitro lesion model by inducing CNS oxidative damage and neuroinflammation suitable for assessing the neuroprotective potential of PD therapeutics.[34] Consistent with these effects, 6-OHDA (100 μM, for 2 h) was employed to induce damage in SH-SY5Y cells previously treated with 4 and 5 (5 μM, for 24 h).
Then, cells were treated with 6-hydroxydopamine (6-OHDA, 100 μM) for 2 h and starved in complete medium for 22 h. The neuroprotective activity was measured by using the MTT assay as previously described.[47] Data are expressed as a percentage of neurotoxicity versus untreated cells.

[4] = PAMPA-BBB assay; details: for prediction (penetration in the CNS): from PAMPA-BBB Pe; for Papp at 2.5 h: pig, PAMPA, pH 7.4
[5] = tested on: SH-SY5Y cells; test: t-BuOOH-induced intracellular ROS formation (H2DCF-DA probe); format: cell-based, human; details: 5 μM for 24 h, then t-BuOOH 100 μM for 30 min
Text: Oxidative stress represents a remarkable pathological feature in NDDs; it is the consequence of an imbalance between the formation of reactive radical species, among others ROS, and the function of many defense antioxidant enzymes. Initially, the potential of compounds 4–7 as indirect antioxidants was investigated[31] by assessing their capability to protect from oxidative stress through prevention of ROS formation upon exposure to tert-butyl hydroperoxide (t-BuOOH). In detail, SH-SY5Y cells were first chronically treated for 24 h (the time necessary to activate the endogenous antioxidant system) with 4–7 (5 μM) and then exposed to 100 μM of t-BuOOH for 30 min; DMF (5 and 10 μM) was employed as the reference compound. Then, the intracellular ROS formation was detected by fluorescent probe 2′-7′-dichlorodihydrofluorescein diacetate (H2DCF-DA).
Figure 3 Antioxidant activity of compounds 4–7 and DMF against t-BuOOH-induced ROS formation in SH-SY5Y cells. Cells were treated with compounds 4–7 (5 μM) and DMF (5 and 10 μM) for 24 h and then with t-BuOOH (100 μM) for 30 min. At the end of treatment, the ROS formation was evaluated by probe H2DCF-DA. Results are expressed as mean ± SEM of at least three independent experiments (* p < 0.05 and ** p < 0.01 vs cells treated with t-BuOOH at one-way ANOVA with the Dunnett post hoc test).
ROS formation was evaluated by using the fluorescent probe H2DCF-DA, as previously described.[43]

Row | Structure (SMILES) | prevention of Aβ1–42 oligomers-induced cell death [1] | NQO1 mRNA levels [2] | protection against 6-OHDA-induced decrease in cell viability [3] | prediction (penetration in the CNS) [4] | Papp at 2.5 h [4] [×10⁻⁶ cm/s] | t-BuOOH-induced intracellular ROS formation [5]
1 | CCOC(=O)/C=C/C(C(=O)/C=C/c1ccc(OC)cc1)=C(O)\C=C\c1ccc(OC)cc1 [Compound 4, Ethyl (2E,4Z,6E)-5-Hydroxy-7-(4-methoxyphenyl)-4-((E)-3-(4-methoxyphenyl)acryloyl)hepta-2,4,6-trienoate] | failed to prevent Aβ1–42 oligomers-induced cell death | significant ability to increase NQO1 mRNA levels | mitigate the 6-OHDA-induced decrease in cell viability | CNS + (compounds showing a Pe value superior to 2.26 × 10^–6 cm s^–1 could be regarded as able to permeate the brain compartment and thus classified as (CNS +)) | 2.5 ± 0.3 | significant reduction
2 | CCOC(=O)/C=C/C(C(=O)/C=C/c1ccc(OC)cc1)=C(O)\C=C\c1ccc(OCc2ccccc2)cc1 [Compound 5, Ethyl (2E,4Z,6E)-7-(4-(Benzyloxy)phenyl)-5-hydroxy-4-((E)-3-(4-methoxyphenyl)acryloyl)hepta-2,4,6-trienoate] | failed to prevent Aβ1–42 oligomers-induced cell death | significant ability to increase NQO1 mRNA levels | mitigate the 6-OHDA-induced decrease in cell viability | CNS + (compounds showing a Pe value superior to 2.26 × 10^–6 cm s^–1 could be regarded as able to permeate the brain compartment and thus classified as (CNS +)) | 4.8 ± 0.4 | significant reduction
